Data from US5639777A, “1,4,5-triphenyl pyrazolyl compounds for the treatment of inflammation and inflammation-related disorders” (G.D. Searle & Co., priority 1996, dated 1997).

What was measured:
[1] = test system: carrageenan-induced foot edema in rats; assay: Rat Carrageenan Foot Pad Edema Test; format: in vivo, Male Sprague-Dawley rats; details: @ 10 mg/kg body weight; oral; foot volume three hours after carrageenan injection
Protocol: The carrageenan foot edema test was performed with materials, reagents and procedures essentially as described by Winter, et al., (Proc. soc. Exm. Biol. Med., 111, 544 (1962)). Male Sprague-Dawley rats were selected in each group so that the average body weight was as close as possible. Rats were fasted with free access to water for over sixteen hours prior to the test. The rats were dosed orally (1 mL)with compounds suspended in vehicle containing 0.5% methylcellulose and 0.025% surfactant, or with vehicle alone. One hour later a subplantar injection of 0.1 mL of 1% solution of carrageenan/sterile 0.9% saline was administered and the volume of the injected foot was measured with a displacement plethysmometer connected to a pressure transducer with a digital indicator. Three hours after the injection of the carrageenan, the volume of the foot was again measured. The average foot swelling in a group of drug-treated animals was compared with that of a group of placebo-treated animals and the percentage inhibition of edema was determined (Otterness and Bliven, Laboratory Models for Testing NSAIDs, in Non-steroidal Anti-Inflammatory Drugs, (J. Lombardino, ed. 1985)).

[2] = compared with other common anti-inflammatory agents; cited from earlier work

SMILES | % Inhibition (rat paw edema) [1] | ulcerogenic [2]
CS(=O)(=O)c1ccc(-c2c(-c3ccc(F)cc3)c(C(F)(F)F)nn2-c2ccccc2)cc1 [Example 1, 4-(4-Fluorophenyl)-5-[4-(methylsulfonyl)phenyl]-1-phenyl-3-(trifluoromethyl)pyrazole] | 20% | –
O=C(O)Cc1c(-c2ccccc2)c(-c2ccccc2)nn1-c1ccccc1 [Isofezolac, 1,3,4-triphenyl-1H-pyrazole-5-acetic acid] | – | as ulcerogenic as other common anti-inflammatory agents
